Experimental data from US11484258B2, “Free radical consumption speed information acquisition method and NASH determination method” (KYUSHU UNIVERSITY, NATIONAL UNIVERSITY CORPORATION, priority 2016, dated 2022).
Where two headings read alike, the source gives them in different places.

Key:
liver = assay: in vivo DNP-MRI of the liver after intravenous CmP: redox metabolic rate (free radical consumption speed); design: species or system mouse
Source text: C57BL6 mice (female, 5 weeks old) were purchased from Charles River Laboratories Japan, Inc. (Yokohama, Japan), and were acclimated for 1 week before starting the experiment. Five mice were housed per cage and were fed with a methionine-choline deficient diet or a normal diet in a room where the temperature and the circadian rhythm were controlled. Each of a methionine-choline deficient diet group (NASH model mouse group) and a normal diet group (normal mouse group) was divided into 5 groups to be subjected to DNP-MRI measurement at 1, 2, 4, 6 and 8 weeks, and blood collection, autopsy and liver tissue collection were performed to evaluate the pathological conditions.
A mouse (NASH model mouse) was anesthetized with isoflurane (4% for introduction, 2% for maintenance) and was fixed, with a pressure-sensitive tape for skin, on a local detector for liver measurement (a surface coil) and a holder with the stomach side faced downward. The body temperature of the mouse was 37±1° C. during the experiment. The mouse was transferred to a DNP-MRI resonance apparatus and the apparatus was set such that the whole liver was a measurement target, and then, CmP (Carbamoyl-PROXYL, redox contrast agent) was intravenously injected into the NASH mode mouse, and the DRI-MRI measurement was started.
TR: 1200 ms; TE: 25 ms; TEPR: 600 ms; number of phase-encoding gradient steps: 64; […]; FOV: 48 mm×48 mm; matrix size: 64×64 (in-plane resolution: 0.75 mm); slice thickness: 30 mm; number of average: 1; and scanning time: 79 s. OMRI data was analyzed by using Image J Software Package (http://rsb.info.nih.gov/ij/).
Besides, the mouse group fed with the normal diet (the normal mouse group) was similarly subjected as a control to the DRI-MRI evaluation.
With respect to the NASH model mouse group, the DNP-MRI measurement was performed 1 week (MCD1), 2 weeks (MCD2), 4 weeks (MCD4), 6 weeks (MCD6) and 8 weeks (MCD8) after feeding the methionine-choline deficient diet (MCD) was started, and the redox metabolic rate of the CmP radical in the liver was calculated.
Also with respect to the normal mouse group, the DNP-MRI measurement was similarly performed 1 week (ND1), 2 weeks (ND2), 4 weeks (ND4), 6 weeks (ND6) and 8 weeks (ND8) after feeding the normal diet was started, and the redox metabolic rate of the CmP radical in the liver was calculated.

[1] = tested on: homogenate solution of the liver
[2] = tested on: homogenate solution of the liver; assay: redox metabolism of CmP by liver homogenate solution, cytoplasmic and blood components (FIG. 7); settings: KCN (mitochondrial electron transport chain inhibitor) added

CC1(C)CC(C(N)=O)C(C)(C)N1[O] (stereo not shown) [CmP, Carbamoyl-PROXYL]
disappearance of the CmP (image intensity in region of interest) (liver; NASH model mouse compared with normal mouse): significantly slower
redox metabolic rate (disappearing rate) in the liver (liver; NASH model mouse group (methionine-choline deficient diet), from 1 week (MCD1), versus normal mouse): significant decrease
time after administration at which the CmP radical still remained (liver; NASH model mouse, epigastrium DNP-MRI images, FIG. 3): 13 min
time after administration at which the CmP radical had mostly disappeared (liver; normal mice (control), epigastrium DNP-MRI images, FIG. 3): 5.5 min
reaction with a cytoplasmic component or a blood component [1]: minimally reacts
redox metabolism by a homogenate solution of the liver [1]: redox metabolized
redox metabolism by a homogenate solution of the liver [2]: metabolism is stopped
